The values that follow come from article PMC6642484, “Cell penetrating caspase substrates promote survival of the transplanted cells” (BMC Research Notes, 2019).

What all share (format): cell-based
Data set [1] concerns N1E and R3 cells. Nature of the data set: Camptothecin-induced apoptosis, LIVE/DEAD staining. As to conditions: Camptothecin 10 μM, 18 h, no peptide. The method, then:
(§1) N1E and R3 ([33-10ras3] (ATCC® CRL-2764™)) cells were grown to about 80% of confluency in 6-well plates covered with D-poly-lysine. Peptides (500 nM or 10 µM) were added to the cells 1 h before treatments. The tested apoptogenic treatments were: Staurosporine (100 nM, 18 h), serum withdraw (20 days for N1E cells and 5 days for R3 cells), heat shock (43 °C, 1 h plus overnight recovery), Camptothecin (10 μM, 18 h), H2O2 (100 μM, 18 h). After the treatment the cells were carefully washed with PBS and stained simultaneously with Calcein A and Ethidium homodimer-1 (LIVE/DEAD® Viability/Cytotoxicity Kit, LifeTechnologies) for 30 min at room temperature. Cells were photographed in an inverted microscope immediately after staining. Percentage of survived cells was calculated from 3 randomly selected fields of view; average cell death rate ± SEM was calculated using GraphPad Prism (version 6.0 h for MacOS, GraphPad Software, La Jolla, USA). Antibodies specific to cleaved Caspase-3 (Asp175) (Rabbit monoclonal 5A1E, CST) were used to visualize Caspase-3 activation in N1E cells by Western blotting.

The subject of data set [2] is N1E cells. Nature of the data set: MALDI-TOF analysis of lysates from peptide-loaded cells. The note with it: 500 nM peptide, 30 min at 37 °C, Triton X-100 lysate after trichloroacetic acid sedimentation, not quantitative. The method, then:
About 10^6 cells (N1E cells) were exposed to 500 nM of DL18 peptide in normal culture media for 30 min at 37 °C. After exposure the cells were washed twice with PBS, lyzed with 1% Triton X-100 in distilled water and the proteins were sedimented with equal volume of 40% trichloroacetic acid. After centrifugation (9000g, 20 min) 20 μl of supernatant was applied on MALDI plate, mixed with solution of 2,5-dihydroxybenzoic acid and subjected for MALDI-TOF analysis.

The subject of data set [3] is N1E and R3 cells. Kind of data set: Hydrogen peroxide induced apoptosis, LIVE/DEAD staining. The note with it: H2O2 100 μM, 18 h, cells untreated with peptides; average ± SEM. The method, then:
as §1

For data set [4], the system named is N1E cells. Nature of the data set: Staurosporine-induced cell death, LIVE/DEAD staining. As to conditions: overnight exposure to 100 nM Staurosporine, no peptide, average ± SEM. The method, then:
as §1

For data set [5], the system named is R3 cells. Described as above. The note with it: Staurosporine 100 nM, no peptide, average ± SEM. The method, then: as §1

SMILES strings stand for the structures. Where a SMILES comes first, the peptide text is derived from it.

Consider `CC[C@@]1(O)C(=O)OCc2c1cc1n(c2=O)Cc2cc3ccccc3nc2-1` [Camptothecin], for which the apoptosis induction result in data set [1] is “induces apoptosis in limited number of cells”.

On to `CC[C@@H](C)[C@@H](NC(=O)[C@@H](CCC(=O)O)NC(=O)[C@H](NC(=O)[C@@H](CC(=O)O)NC(=O)[C@@H](CO)NC(=O)CNC(=O)[C@H](N)[C@H](C)O)[C@H](C)O)C(=O)NCC(=O)N[C@@H](CCCNC(=N)N)C(=O)N[C@@H](CCCCN)C(=O)N[C@@H](CCCCN)C(=O)N[C@@H](CCCNC(=N)N)C(=O)N[C@@H](CCCNC(=N)N)C(=O)N[C@@H](CCC(N)=O)C(=O)N[C@@H](CCCNC(=N)N)C(=O)N[C@@H](CCCNC(=N)N)C(=O)N[C@@H](CCCNC(=N)N)C(=O)NCC(=O)O` [DL18] (HELM PEPTIDE1{[dT].G.[dS].[dD].[dT].[dE].[dI].G.R.K.K.R.R.Q.R.R.R.G}$$$$V2.0), for which the “dynamics of cellular catabolism of the peptide (prevalence of non-metabolized m/z 2158 peak)” value in data set [2] was “not considerable”.

Consider `OO` [H2O2, hydrogen peroxide], for which the dead cells in data set [3] worked out at 84.8 ± 4.28%.

With `CN[C@@H]1C[C@H]2O[C@@](C)([C@@H]1OC)n1c3ccccc3c3c4c(c5c6ccccc6n2c5c31)C(=O)NC4` [Staurosporine], the cell death in data set [4] was found to be 89.67 ± 5.04%. Besides, the dead cells in data set [5] stood at 15.33 ± 3.76%.
